Measured values from PMC4710522, “A Novel Triazolopyridine-Based Spleen Tyrosine Kinase Inhibitor That Arrests Joint Inflammation” (PLoS ONE, 2016).
pIC50: −log10 of the molar value.

Experiments:
Assay in all cases: SelectScreen kinase assay
Type in all cases: biochemical
MuSK_h = molecular target: T1, MuSK_h (Homo sapiens, UniProt O15146); details: KM ATP, read-out: % control
T1 construct: purchased Life Technologies (Invitrogen) SelectScreen, Z'-LYTE / Adapta
Method in brief: (§1)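 Single-point inhibition at 3 µM compound. ATP: KM, 10 µM or 100 µM per enzyme as indicated. Output = % control (DMSO = 100%).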

PRK1_h = molecular target: T2, PRK1_h (Homo sapiens, UniProt Q16512); details: KM ATP, read-out: % control
T2 construct: purchased Life Technologies (Invitrogen) SelectScreen, Z'-LYTE / Adapta
Method in brief: as §1

Rsk2_h = molecular target: T3, Rsk2_h (Homo sapiens, UniProt P51812); details: KM ATP, read-out: % control
T3 construct: purchased Life Technologies (Invitrogen) SelectScreen, Z'-LYTE / Adapta
Method in brief: as §1

Rsk3_h = molecular target: T4, Rsk3_h (Homo sapiens, UniProt Q15349); details: KM ATP, read-out: % control
T4 construct: purchased Life Technologies (Invitrogen) SelectScreen, Z'-LYTE / Adapta
Method in brief: as §1

PAK1_h = molecular target: T5, PAK1_h (Homo sapiens, UniProt Q13153); details: KM ATP, read-out: % control
T5 construct: purchased Life Technologies (Invitrogen) SelectScreen, Z'-LYTE / Adapta
Method in brief: as §1

CDK2_cyclinA_h = molecular target: T6, CDK2_cyclinA_h (Homo sapiens, UniProt P24941); details: KM ATP, read-out: % control
T6 construct: purchased Life Technologies (Invitrogen) SelectScreen, Z'-LYTE / Adapta
Method in brief: as §1

CLK1_h = molecular target: T7, CLK1_h (Homo sapiens, UniProt P49759); details: KM ATP, read-out: % control
T7 construct: purchased Life Technologies (Invitrogen) SelectScreen, Z'-LYTE / Adapta
Method in brief: as §1

JAK2_h = JAK2_h (Homo sapiens, UniProt O60674)
Method in brief: as §1

STK25_h = molecular target: T8, STK25_h (Homo sapiens, UniProt O00506); details: KM ATP, read-out: % control
T8 construct: purchased Life Technologies (Invitrogen) SelectScreen, Z'-LYTE / Adapta
Method in brief: as §1

MST2_h = molecular target: T9, MST2_h (Homo sapiens, UniProt Q13188); details: KM ATP, read-out: % control
T9 construct: purchased Life Technologies (Invitrogen) SelectScreen, Z'-LYTE / Adapta
Method in brief: as §1

PKB-beta_h = molecular target: T10, PKB-beta_h (Homo sapiens, UniProt P31751); details: KM ATP, read-out: % control
T10 construct: purchased Life Technologies (Invitrogen) SelectScreen, Z'-LYTE / Adapta
Method in brief: as §1

EGFR_L861Q_h = molecular target: T11, EGFR_L861Q_h (Homo sapiens, UniProt P00533, L861Q); details: KM ATP, read-out: % control
T11 construct: purchased Life Technologies (Invitrogen) SelectScreen, Z'-LYTE / Adapta
Method in brief: as §1

JNK2-alpha2_h = molecular target: T12, JNK2-alpha2_h (Homo sapiens, UniProt P45984); details: 100 µM ATP, read-out: % control
T12 construct: purchased Life Technologies (Invitrogen) SelectScreen, Z'-LYTE / Adapta
Method in brief: as §1

Abl_h = molecular target: T13, Abl_h (Homo sapiens, UniProt P00519); details: KM ATP, read-out: % control
T13 construct: purchased Life Technologies (Invitrogen) SelectScreen, Z'-LYTE / Adapta
Method in brief: as §1

TrkB_h = molecular target: T14, TrkB_h (Homo sapiens, UniProt Q16620); details: KM ATP, read-out: % control
T14 construct: purchased Life Technologies (Invitrogen) SelectScreen, Z'-LYTE / Adapta
Method in brief: as §1

HIPK4_h = molecular target: T15, HIPK4_h (Homo sapiens, UniProt Q8NE63); details: KM ATP, read-out: % control
T15 construct: purchased Life Technologies (Invitrogen) SelectScreen, Z'-LYTE / Adapta
Method in brief: as §1

EphB3_h = molecular target: T16, EphB3_h (Homo sapiens, UniProt P54753); details: KM ATP, read-out: % control
T16 construct: purchased Life Technologies (Invitrogen) SelectScreen, Z'-LYTE / Adapta
Method in brief: as §1

Plk2_h = molecular target: T17, Plk2_h (Homo sapiens, UniProt Q9NYY3); details: KM ATP, read-out: % control
T17 construct: purchased Life Technologies (Invitrogen) SelectScreen, Z'-LYTE / Adapta
Method in brief: as §1

Ros_h = molecular target: T18, Ros_h (Homo sapiens, UniProt P08922); details: KM ATP, read-out: % control
T18 construct: purchased Life Technologies (Invitrogen) SelectScreen, Z'-LYTE / Adapta
Method in brief: as §1

MYLK2_h = molecular target: T19, MYLK2_h (Homo sapiens, UniProt Q9H1R3); details: KM ATP, read-out: % control
T19 construct: purchased Life Technologies (Invitrogen) SelectScreen, Z'-LYTE / Adapta
Method in brief: as §1

Flt1_h = molecular target: T20, Flt1_h (Homo sapiens, UniProt P17948); details: KM ATP, read-out: % control
T20 construct: purchased Life Technologies (Invitrogen) SelectScreen, Z'-LYTE / Adapta
Method in brief: as §1

p38-delta_h = molecular target: T21, p38-delta_h (Homo sapiens, UniProt O15264); details: KM ATP, read-out: % control
T21 construct: purchased Life Technologies (Invitrogen) SelectScreen, Z'-LYTE / Adapta
Method in brief: as §1

EphB1_h = molecular target: T22, EphB1_h (Homo sapiens, UniProt P54762); details: KM ATP, read-out: % control
T22 construct: purchased Life Technologies (Invitrogen) SelectScreen, Z'-LYTE / Adapta
Method in brief: as §1

Aurora-B_h = Aurora-B_h (Homo sapiens, UniProt Q96GD4)
Method in brief: as §1

SRPK1_h = molecular target: T23, SRPK1_h (Homo sapiens, UniProt Q96SB4); details: KM ATP, read-out: % control
T23 construct: purchased Life Technologies (Invitrogen) SelectScreen, Z'-LYTE / Adapta
Method in brief: as §1

Yes_h = molecular target: T24, Yes_h (Homo sapiens, UniProt P07947); details: KM ATP, read-out: % control
T24 construct: purchased Life Technologies (Invitrogen) SelectScreen, Z'-LYTE / Adapta
Method in brief: as §1

BrSK1_h = molecular target: T25, BrSK1_h (Homo sapiens, UniProt Q8TDC3); details: KM ATP, read-out: % control
T25 construct: purchased Life Technologies (Invitrogen) SelectScreen, Z'-LYTE / Adapta
Method in brief: as §1

Itk_h = molecular target: T26, Itk_h (Homo sapiens, UniProt Q08881); details: KM ATP, read-out: % control
T26 construct: purchased Life Technologies (Invitrogen) SelectScreen, Z'-LYTE / Adapta
Method in brief: as §1

DYRK1B_h = molecular target: T27, DYRK1B_h (Homo sapiens, UniProt Q9Y463); details: KM ATP, read-out: % control
T27 construct: purchased Life Technologies (Invitrogen) SelectScreen, Z'-LYTE / Adapta
Method in brief: as §1

cKit_h = cKit_h (Homo sapiens, UniProt P10721)
Method in brief: as §1

Hgk_h = molecular target: T28, Hgk_h (Homo sapiens, UniProt O95819); details: KM ATP, read-out: % control
T28 construct: purchased Life Technologies (Invitrogen) SelectScreen, Z'-LYTE / Adapta
Method in brief: as §1

ROCK-II_h = molecular target: T29, ROCK-II_h (Homo sapiens, UniProt O75116); details: KM ATP, read-out: % control
T29 construct: purchased Life Technologies (Invitrogen) SelectScreen, Z'-LYTE / Adapta
Method in brief: as §1

EGFR_L858R_h = molecular target: T30, EGFR_L858R_h (Homo sapiens, UniProt P00533, L858R); details: KM ATP, read-out: % control
T30 construct: purchased Life Technologies (Invitrogen) SelectScreen, Z'-LYTE / Adapta
Method in brief: as §1

MKK6_h = molecular target: T31, MKK6_h (Homo sapiens, UniProt P52564); details: 100 µM ATP, read-out: % control
T31 construct: purchased Life Technologies (Invitrogen) SelectScreen, Z'-LYTE / Adapta
Method in brief: as §1

[1] = 3 µM, KM ATP, read-out: % control
[2] = 10-point dose-response, commercial vendor

Chain of Aurora-B_h (Q96GD4 whole entry): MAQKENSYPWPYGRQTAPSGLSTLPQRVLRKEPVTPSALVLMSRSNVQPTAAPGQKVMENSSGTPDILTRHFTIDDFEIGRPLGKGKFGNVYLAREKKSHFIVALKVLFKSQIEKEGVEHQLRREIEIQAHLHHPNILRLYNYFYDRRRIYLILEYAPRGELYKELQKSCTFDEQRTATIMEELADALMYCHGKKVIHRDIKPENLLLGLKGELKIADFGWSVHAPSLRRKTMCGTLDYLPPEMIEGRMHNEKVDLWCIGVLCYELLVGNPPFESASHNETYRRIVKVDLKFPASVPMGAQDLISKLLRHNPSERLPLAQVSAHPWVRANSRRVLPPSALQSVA
Chain of JAK2_h (O60674 whole entry): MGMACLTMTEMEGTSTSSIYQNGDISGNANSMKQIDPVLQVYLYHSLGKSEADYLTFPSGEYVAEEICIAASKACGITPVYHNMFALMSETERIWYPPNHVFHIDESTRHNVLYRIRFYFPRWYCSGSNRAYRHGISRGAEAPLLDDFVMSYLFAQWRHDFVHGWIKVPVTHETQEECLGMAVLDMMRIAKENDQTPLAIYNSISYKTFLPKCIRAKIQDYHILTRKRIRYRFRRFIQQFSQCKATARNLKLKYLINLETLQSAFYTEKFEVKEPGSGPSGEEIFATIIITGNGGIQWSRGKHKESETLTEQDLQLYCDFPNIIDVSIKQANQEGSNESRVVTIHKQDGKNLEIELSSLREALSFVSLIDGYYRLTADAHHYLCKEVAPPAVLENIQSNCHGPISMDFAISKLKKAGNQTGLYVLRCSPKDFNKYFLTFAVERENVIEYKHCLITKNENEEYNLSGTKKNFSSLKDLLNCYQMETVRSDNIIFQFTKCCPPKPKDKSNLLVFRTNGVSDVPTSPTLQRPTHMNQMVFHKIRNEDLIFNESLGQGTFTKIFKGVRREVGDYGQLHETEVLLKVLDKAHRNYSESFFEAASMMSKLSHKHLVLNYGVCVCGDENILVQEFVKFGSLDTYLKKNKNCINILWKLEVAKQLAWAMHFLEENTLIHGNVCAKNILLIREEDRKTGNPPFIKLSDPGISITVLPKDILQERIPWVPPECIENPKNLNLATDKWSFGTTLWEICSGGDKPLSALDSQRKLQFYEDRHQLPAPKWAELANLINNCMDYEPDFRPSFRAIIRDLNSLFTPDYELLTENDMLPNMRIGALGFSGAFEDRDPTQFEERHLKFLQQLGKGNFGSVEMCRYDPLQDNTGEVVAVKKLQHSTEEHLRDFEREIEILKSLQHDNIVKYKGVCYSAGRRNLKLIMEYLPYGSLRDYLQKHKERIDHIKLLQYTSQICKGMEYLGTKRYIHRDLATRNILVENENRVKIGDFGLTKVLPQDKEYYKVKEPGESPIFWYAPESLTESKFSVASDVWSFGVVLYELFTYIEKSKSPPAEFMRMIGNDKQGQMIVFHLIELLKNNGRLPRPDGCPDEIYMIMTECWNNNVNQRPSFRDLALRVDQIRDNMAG
Chain of cKit_h (P10721 26-976): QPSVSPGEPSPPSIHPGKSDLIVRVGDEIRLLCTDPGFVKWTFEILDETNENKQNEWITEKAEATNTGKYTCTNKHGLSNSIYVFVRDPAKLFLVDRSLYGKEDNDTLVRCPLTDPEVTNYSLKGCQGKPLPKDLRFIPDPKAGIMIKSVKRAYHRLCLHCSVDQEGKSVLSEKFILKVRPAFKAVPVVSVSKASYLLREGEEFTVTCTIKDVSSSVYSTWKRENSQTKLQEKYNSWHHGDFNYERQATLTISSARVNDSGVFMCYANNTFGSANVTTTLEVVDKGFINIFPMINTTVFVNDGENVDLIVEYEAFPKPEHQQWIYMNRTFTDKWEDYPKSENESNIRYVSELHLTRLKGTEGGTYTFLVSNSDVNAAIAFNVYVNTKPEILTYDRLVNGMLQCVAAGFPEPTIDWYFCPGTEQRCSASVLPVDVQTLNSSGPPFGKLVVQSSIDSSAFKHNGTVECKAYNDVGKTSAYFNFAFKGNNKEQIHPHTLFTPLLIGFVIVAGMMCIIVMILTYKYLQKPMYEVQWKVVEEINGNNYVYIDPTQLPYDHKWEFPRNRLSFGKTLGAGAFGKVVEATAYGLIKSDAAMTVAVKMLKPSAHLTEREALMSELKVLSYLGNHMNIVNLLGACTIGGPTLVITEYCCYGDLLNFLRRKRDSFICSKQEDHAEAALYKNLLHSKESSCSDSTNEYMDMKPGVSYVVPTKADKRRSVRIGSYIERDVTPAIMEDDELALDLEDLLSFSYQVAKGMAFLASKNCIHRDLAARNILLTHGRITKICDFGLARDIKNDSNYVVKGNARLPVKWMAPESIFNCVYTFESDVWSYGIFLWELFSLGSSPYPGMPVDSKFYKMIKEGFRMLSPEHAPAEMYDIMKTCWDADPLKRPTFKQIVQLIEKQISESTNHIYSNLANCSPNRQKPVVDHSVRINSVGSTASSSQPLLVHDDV
T8 sequence (O00506 whole entry): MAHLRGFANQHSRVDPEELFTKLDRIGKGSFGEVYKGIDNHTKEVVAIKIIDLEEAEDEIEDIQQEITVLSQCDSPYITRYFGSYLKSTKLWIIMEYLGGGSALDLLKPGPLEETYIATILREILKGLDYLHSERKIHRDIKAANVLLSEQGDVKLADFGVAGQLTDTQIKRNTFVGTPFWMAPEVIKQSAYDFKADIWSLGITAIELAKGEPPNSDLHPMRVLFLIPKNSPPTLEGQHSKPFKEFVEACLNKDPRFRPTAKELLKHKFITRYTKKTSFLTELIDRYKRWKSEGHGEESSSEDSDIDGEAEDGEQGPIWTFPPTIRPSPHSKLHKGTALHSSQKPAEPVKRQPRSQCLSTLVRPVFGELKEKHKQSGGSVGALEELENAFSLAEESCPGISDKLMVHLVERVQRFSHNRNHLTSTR
T22 sequence (P54762 18-984): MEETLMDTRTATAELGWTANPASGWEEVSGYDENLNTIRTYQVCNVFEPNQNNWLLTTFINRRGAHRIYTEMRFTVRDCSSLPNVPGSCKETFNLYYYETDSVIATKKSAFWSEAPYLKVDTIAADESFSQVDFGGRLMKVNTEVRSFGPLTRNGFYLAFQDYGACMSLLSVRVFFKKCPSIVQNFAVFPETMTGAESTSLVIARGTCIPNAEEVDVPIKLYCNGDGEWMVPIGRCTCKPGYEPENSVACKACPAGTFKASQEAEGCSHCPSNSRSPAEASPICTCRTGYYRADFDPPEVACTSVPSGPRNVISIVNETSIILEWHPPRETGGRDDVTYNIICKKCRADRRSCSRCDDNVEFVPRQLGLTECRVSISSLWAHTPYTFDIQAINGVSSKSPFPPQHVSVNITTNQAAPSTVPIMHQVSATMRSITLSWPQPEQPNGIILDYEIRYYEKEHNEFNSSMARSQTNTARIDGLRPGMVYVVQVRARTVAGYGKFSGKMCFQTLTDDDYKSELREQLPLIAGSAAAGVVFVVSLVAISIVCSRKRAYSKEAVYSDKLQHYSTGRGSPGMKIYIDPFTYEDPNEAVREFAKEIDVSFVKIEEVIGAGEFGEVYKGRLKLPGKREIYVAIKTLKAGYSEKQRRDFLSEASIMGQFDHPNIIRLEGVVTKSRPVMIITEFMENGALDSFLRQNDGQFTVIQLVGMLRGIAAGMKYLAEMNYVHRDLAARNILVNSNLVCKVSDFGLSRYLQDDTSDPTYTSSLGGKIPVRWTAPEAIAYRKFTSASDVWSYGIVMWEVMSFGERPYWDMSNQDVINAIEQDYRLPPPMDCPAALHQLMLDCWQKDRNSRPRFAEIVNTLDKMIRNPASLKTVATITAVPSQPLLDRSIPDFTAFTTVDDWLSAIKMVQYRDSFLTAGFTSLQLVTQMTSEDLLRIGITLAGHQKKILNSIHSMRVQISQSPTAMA
T16 sequence (P54753 34-998): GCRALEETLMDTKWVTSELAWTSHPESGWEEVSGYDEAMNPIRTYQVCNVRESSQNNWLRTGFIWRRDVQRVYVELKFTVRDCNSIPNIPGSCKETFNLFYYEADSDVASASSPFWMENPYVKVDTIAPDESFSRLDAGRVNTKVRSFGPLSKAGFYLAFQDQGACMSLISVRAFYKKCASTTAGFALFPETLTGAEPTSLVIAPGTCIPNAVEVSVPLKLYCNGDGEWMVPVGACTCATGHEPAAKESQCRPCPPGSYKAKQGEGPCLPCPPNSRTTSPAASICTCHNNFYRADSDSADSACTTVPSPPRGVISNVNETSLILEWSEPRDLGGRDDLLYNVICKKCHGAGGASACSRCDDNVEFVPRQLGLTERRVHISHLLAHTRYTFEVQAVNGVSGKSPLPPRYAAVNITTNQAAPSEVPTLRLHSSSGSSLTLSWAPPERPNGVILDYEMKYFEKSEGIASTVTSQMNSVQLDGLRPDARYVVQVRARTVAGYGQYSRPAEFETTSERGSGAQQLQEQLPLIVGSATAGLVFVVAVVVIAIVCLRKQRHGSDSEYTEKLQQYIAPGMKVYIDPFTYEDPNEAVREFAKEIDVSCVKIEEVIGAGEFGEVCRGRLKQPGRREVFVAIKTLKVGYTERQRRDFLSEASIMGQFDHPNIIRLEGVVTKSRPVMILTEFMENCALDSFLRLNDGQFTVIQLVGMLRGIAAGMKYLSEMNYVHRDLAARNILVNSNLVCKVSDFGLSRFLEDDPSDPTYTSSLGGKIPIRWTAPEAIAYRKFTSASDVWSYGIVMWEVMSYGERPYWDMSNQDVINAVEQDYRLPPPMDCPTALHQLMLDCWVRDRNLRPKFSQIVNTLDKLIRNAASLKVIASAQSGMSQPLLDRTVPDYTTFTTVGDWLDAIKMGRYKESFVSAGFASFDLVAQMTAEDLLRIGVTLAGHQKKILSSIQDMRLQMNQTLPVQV

c1cc(CC2CCOCC2)n2nc(Nc3ccc4c(NC5CCOCC5)n[nH]c4c3)nc2c1 [CC-509, [3-(2H-3,4,5,6-tetrahydropyran-4-ylamino)(1H-indazol-6-yl)][5-(2H-3,4,5,6-tetrahydropyran-4-ylmethyl)(2H-1,2,4-triazolo[1,5-a]pyridin-2-yl)]amine]
remaining activity at 3 µM (MuSK_h): 41% | remaining activity at 3 µM (PRK1_h): 60% | remaining activity at 3 µM (Rsk2_h): 49% | remaining activity at 3 µM (Rsk3_h): 33% | remaining activity at 3 µM (PAK1_h): 94% | remaining activity at 3 µM (CDK2_cyclinA_h): 64% | remaining activity at 3 µM (CLK1_h): 82% | remaining activity at 3 µM (JAK2_h; [1]): 4% | pIC50 (JAK2_h; [2]): 7.72 | remaining activity at 3 µM (STK25_h): 97% | remaining activity at 3 µM (MST2_h): 46% | remaining activity at 3 µM (PKB-beta_h): 98% | remaining activity at 3 µM (EGFR_L861Q_h): 97% | remaining activity at 3 µM (JNK2-alpha2_h): 88% | remaining activity at 3 µM (Abl_h): 19% | remaining activity at 3 µM (TrkB_h): 34% | remaining activity at 3 µM (HIPK4_h): 100% | remaining activity at 3 µM (EphB3_h): 42% | remaining activity at 3 µM (Plk2_h): 96% | remaining activity at 3 µM (Ros_h): 74% | remaining activity at 3 µM (MYLK2_h): 80% | remaining activity at 3 µM (Flt1_h): 55% | remaining activity at 3 µM (p38-delta_h): 82% | remaining activity at 3 µM (EphB1_h): 41% | remaining activity at 3 µM (Aurora-B_h; [1]): 14% | pIC50 (Aurora-B_h; [2]): 6.39 | remaining activity at 3 µM (SRPK1_h): 98% | remaining activity at 3 µM (Yes_h): 54% | remaining activity at 3 µM (BrSK1_h): 65% | remaining activity at 3 µM (Itk_h): 91% | remaining activity at 3 µM (DYRK1B_h): 95% | remaining activity at 3 µM (cKit_h; [1]): 66% | pIC50 (cKit_h; [2]): 4.96 | remaining activity at 3 µM (Hgk_h): 62% | remaining activity at 3 µM (ROCK-II_h): 69% | remaining activity at 3 µM (EGFR_L858R_h): 101% | remaining activity at 3 µM (MKK6_h): 101%
